Consider 1 compound from PMC4171606, “A novel copper(I) complex induces ER-stress-mediated apoptosis and sensitizes B-acute lymphoblastic leukemia cells to chemotherapeutic agents” (Oncotarget, 2014).

Structures are written as SMILES. Bounds are passed on as bounds.

One data set concerns RS4;11 and SEM cells. Briefly: Cell cycle distribution by flow cytometry (PI). It counts as cell-based, human. As to conditions: 24 h, different concentrations. How it is done:
FIGURE 1 CP uptake and effects on cell cycle and apoptosis induction A) RS4;11, SEM, THP1, Jurkat cell lines and healthy PBMC were incubated with 6.25, 12.5 and 25 μM of CP for 24 h. The intracellular accumulation of CP was detected by GF-AAS analysis. B) SEM and RS4;11 cells were treated with the indicated concentrations of CP for 24 h, cell cycle distribution and Sub-G1 contents were analyzed by flow cytometry after cell staining with PI. The percentages of each phase of the cell cycle (G1, S, G2/M) were calculated on living cells whereas the percentages of cells with hypodiploid DNA content peak (subG1) was referred to cell population characterized by the appearance of subG1 peak. C) SEM and RS4;11 cells were incubated with 2.5 μM CP for the indicated times and analyzed by flow cytometry after double staining with Annexin-V-FITC and PI. Data are represented as mean ± S.E.M. of three independent experiments.
The effects of different concentrations of CP on cell cycle progression were examined in RS4;11 and SEM cells after 24 h of treatment.
5×10^5 RS4;11 and SEM cells in exponential growth were treated with different concentrations of CP for different times. After the incubation, cells were collected, centrifuged and fixed with ice-cold ethanol (70%) and stained with PI as described previously. DNA histograms were analyzed using Multicycle for Windows (Phoenix Flow Systems)
(In general: Flow cytometry measures light scatter and fluorescence of single cells or particles in a stream.)

The test system of data set [1] is human leukemia cell lines. In words: MTT growth inhibition, panel of twelve leukemia cell lines, 72 h. Particulars: healthy lymphocytes vs B-leukemia cells. The data set is classed as cell-based. How it is done: (§1) [Cu(thp)4][PF6] (CP) was evaluated for its growth inhibition activity on a panel of twelve different human leukemia cell lines (five B-acute lymphoblastic leukemia, three T-acute lymphoblastic leukemia, three acute myeloid leukemia and one chronic myeloid leukemia). Cells were treated for 72 h with CP and cell viability was evaluated by MTT test. […] This abnormal high expression of proteasomal proteins and mRNA seem to be correlated to the hyperproliferation of these cancer cells and to the sensitivity towards proteasome inhibitors.
(§2) The human leukemia cell lines RS 4;11, SEM, REH, RCH-ACV, MHH-CALL2, Jurkat, CCRF-CEM, HSB2, HL-60, K562, THP-1, MV4;11 were purchased from the American Type Culture Collection. Cells were cultured in RPMI 1640 (Life Technologies, Italy) supplemented with 10% fetal bovine serum (FBS), glutamine (2 mM; Life Technologies, Italy), penicillin (100 U/ml; Life Technologies, Italy) and streptomycin (100 μg/ml; Life Technologies, Italy), and maintained at 37°C in a humidified atmosphere with 5% CO2. The cytotoxic activity of CP was determined using a standard 3-[4,5-dimethylthiazol-2-yl]-2,5-diphenyltetrazodium bromide (MTT) based colorimetric assay (Sigma-Aldrich, Italy). Briefly, cells were seeded at a density of 2×10^4 cells/well in 96-well microtiter plates. After 24 h, cells were exposed to the test compound. After different times, cell survival was determined by the addition of an MTT solution as previously described.

The next data set relates to PHA-stimulated PBMC. In words: MTT viability of healthy cells, 24 h. It counts as cell-based, human. On the procedure:
(§3) CP growth inhibitory activity was measured on primary cultures derived from pediatric patients affected by B-acute lymphoblastic leukemia. […] In particular, in resting and in PHA-stimulated PBMC, and in CD19^+ cells GI50 was higher than 10 μM confirming that CP preferentially affects leukemia cells.
(§4) FIGURE 6 CP effects on B-ALL primary cultures (A) Blast cells from six B-ALL patients were incubated for 24 h with different concentrations of CP. For the sake of comparison CD19^+ cells from peripheral blood of healthy donors, and PBMC were also incubated with CP in the presence or absence of PHA. Cell viability were assayed by MTT analysis. Data are represented as mean ± S.E.M of four independent experiments. (B) Bone marrow cells from healthy donors were treated for 24 h with CP (2.5 μM and 5 μM). Cell viability was evaluated on the whole population by flow cytometry after staining the cells with Annexin-V-FITC and PI. are represented as mean ± S.E.M of 3 independent experiments. (C) Western Blot analysis of GRP78 and CHOP expression, PARP cleavage and caspase-3 activation, on protein extracts of blast cells from B-ALL patients treated with CP (2.5 μM) for 12 h.
(§5) Peripheral blood mononuclear cells (PBMC) and bone marrow cells from healthy donors were obtained by separation on Lymphoprep (Fresenius KABI, Norge AS) gradient. After extensive washing, cells were resuspended (1.0 × 10^6 cells/ml) in RPMI1640 with 10% fetal bovine serum and incubated overnight in 96-well tissue culture microtiter plate. For cytotoxicity evaluations in proliferating PBMC cultures, non-adherent cells were resuspended in growth medium, containing 2.5 μg/ml phytohematoglutinin (PHA) (Irvine Scientific). To isolate B-lymphocyte, PBMC obtained by Lymphoprep (Fresenius KABI, Norge AS) separation were labeled with anti-CD19-APC (BD Biosciences, Italy) and collected by cell sorting.

Another data set has as its system resting PBMC. In words: MTT viability of healthy cells, 24 h. The data set is classed as cell-based, human. How it is done: as §3, §4, §5
Data set [2] has as its system CD19+ cells from peripheral blood of healthy donors. Briefly: MTT viability of healthy cells, 24 h. The data set is classed as cell-based, human. How it is done: as §3, §4, §5
In data set [3] the test system is K562 (chronic myeloid leukemia). Briefly: MTT growth inhibition, 72 h. The data set is classed as cell-based, human. As to conditions: K562, 72 h, mean ± SE. How it is done: as §1, §2
Data set [4] deals with Jurkat (T-acute lymphoblastic leukemia). In words: MTT growth inhibition, 72 h. It counts as cell-based, human. As to conditions: mean ± SE. On the procedure:
as §1, §2

In data set [5] the test system is CCRF-CEM (T-acute lymphoblastic leukemia). Briefly: MTT growth inhibition, 72 h. Particulars: mean ± SE. The data set is classed as cell-based, human. How it is done:
as §1, §2

The test system of data set [6] is MV4;11 (acute myeloid leukemia). Briefly: MTT growth inhibition, 72 h. The data set is classed as cell-based, human. Particulars: MV4;11, 72 h, mean ± SE. How it is done: as §1, §2
Data set [7] deals with HL60 (promyelocytic leulemia). In words: MTT growth inhibition, 72 h. The data set is classed as cell-based, human. As to conditions: HL60, 72 h, mean ± SE. How it is done:
as §1, §2

In data set [8] the test system is RS4;11 (B-acute lymphoblastic leukemia). Briefly: MTT growth inhibition, 72 h. The data set is classed as cell-based, human. As to conditions: RS4;11, 72 h, mean ± SE. How it is done: as §1, §2
In data set [9] the test system is HSB-2 (T-acute lymphoblastic leukemia). Briefly: MTT growth inhibition, 72 h. It counts as cell-based, human. Particulars: HSB-2, 72 h, mean ± SE. On the procedure: as §1, §2
The test system of data set [10] is RCH-ACV (B-acute lymphoblastic leukemia). In words: MTT growth inhibition, 72 h. It counts as cell-based, human. As to conditions: mean ± SE. On the procedure:
as §1, §2

In data set [11] the test system is MHH-CALL2 (B-acute lymphoblastic leukemia). In words: MTT growth inhibition, 72 h. It counts as cell-based, human. As to conditions: MHH-CALL2, 72 h, mean ± SE. On the procedure:
as §1, §2

The GI50 is the concentration giving 50% growth inhibition. Read a high GI50 as lower sensitivity of the cells. On to `F[P-](F)(F)(F)(F)F.OCP(CO)CO.OCP(CO)CO.OCP(CO)CO.OCP(CO)CO.[Cu+]` [CP, [Cu(thp)4][PF6]], for which, in the data set on RS4;11 and SEM cells, the “cell population with hypodiploid DNA content peak (subG1)” value is listed as “concentration-dependent increase”. Also, the “effect on cell cycle progression” value in the data set on RS4;11 and SEM cells is on record as “did not affect cell cycle”. Also, the “cytotoxic activity on healthy lymphocytes lower than B-leukemia cells” value in data set [1] is recorded as 5-10 fold. For the same compound, the GI50 is greater than 10 µM in the data set with PHA-stimulated PBMC; greater than 10 µM in the data set with resting PBMC; greater than 10 µM in [2]; 23.2 ± 1 µM in [3]; 16.7 ± 2.6 µM in [4]; 3.9 ± 0.22 µM in data set [5]. The GI50 was 1200 ± 200 nM in data set [6]; 12.1 ± 2.8 µM in data set [7]; 300 ± 10 nM in data set [8]; 15.1 ± 0.26 µM in data set [9]; 900 ± 200 nM in data set [10]; 1900 ± 100 nM in data set [11].
